Measured values taken from patent publication US4195171A, “Derivatives of an antibiotic XK-62-2 and process for the production thereof” (Abbott Laboratories, priority 1975, dated 1980).
Converted amounts (≈) assume the structure as drawn.

Tests used:
Experiment in all cases: Antibacterial spectrum, MIC by agar dilution method
Format in all cases: cell-based
Escherichia coli Juhl = conditions: agar dilution, pH 7.2, read-out: Minimum Inhibitory Concentration
Source text: (§1) XK-62-2, 1-N-[L-(-)-α-hydroxy-γ-aminobutyryl] XK-62-2, Compounds (I-1), (I-2), (II-1) and (II-2) against various Gram-negative and Gram-positive bacteria determined by agar dilution method at pH 7.2.

Escherichia coli T-5 = conditions: T5, agar dilution, pH 7.2, read-out: Minimum Inhibitory Concentration
Source text: as §1

[1] = test system: Klebsiella pneumoniae No. 8045; conditions: pH 7.2, read-out: Minimum Inhibitory Concentration
Source text: as §1

Proteus mirabilis 1287 = conditions: pH 7.2, read-out: Minimum Inhibitory Concentration
Source text: as §1

Proteus morganii KY 4298 = conditions: Morganella morganii, KY4298; agar dilution, pH 7.2; read-out: Minimum Inhibitory Concentration
Source text: as §1

Proteus rettgeri KY 4288 = conditions: Providencia rettgeri, KY4288, pH 7.2, read-out: Minimum Inhibitory Concentration
Source text: as §1

[2] = test system: Pseudomonas aeruginosa BMH 10; conditions: BMH10, pH 7.2, read-out: Minimum Inhibitory Concentration
Source text: as §1

[3] = test system: Pseudomonas aeruginosa BMH 1; conditions: BMH1, pH 7.2, read-out: Minimum Inhibitory Concentration
Source text: as §1

[4] = test system: Pseudomonas aeruginosa E-2; conditions: E2, pH 7.2, read-out: Minimum Inhibitory Concentration
Source text: as §1

[5] = test system: Pseudomonas aeruginosa NC-5; conditions: NC5, pH 7.2, read-out: Minimum Inhibitory Concentration
Source text: as §1

[6] = test system: Salmonella enteritidis G-14; conditions: Salmonella enterica, pH 7.2, read-out: Minimum Inhibitory Concentration
Source text: as §1

[7] = test system: Shigella sonnei ATCC 9290; conditions: ATCC9290, pH 7.2, read-out: Minimum Inhibitory Concentration
Source text: as §1

[8] = test system: Staphylococcus aureus 209 P; conditions: pH 7.2, read-out: Minimum Inhibitory Concentration
Source text: as §1

[9] = test system: Staphylococcus aureus Smith; conditions: pH 7.2, read-out: Minimum Inhibitory Concentration
Source text: as §1

[10] = test system: Streptococcus faecalis ATCC 10541; conditions: Enterococcus faecalis, ATCC10541, pH 7.2, read-out: Minimum Inhibitory Concentration
Source text: as §1

[11] = test system: Escherichia coli KY Z-343; conditions: KYZ343, pH 7.2, strain produces kanamycin acetyltransferase, read-out: Minimum Inhibitory Concentration
Source text: as §1
(§2) ^1 produces kanamycin acetyltransferase

[12] = test system: Pseudomonas aeruginosa KY 8510; conditions: KY8510, pH 7.2, read-out: Minimum Inhibitory Concentration
Source text: as §1, §2

[13] = test system: Pseudomonas aeruginosa KY 8516; conditions: KY8516, pH 7.2, read-out: Minimum Inhibitory Concentration
Source text: as §1, §2

[14] = test system: Serratia marcescens POE 1065; conditions: POE1065, pH 7.2, read-out: Minimum Inhibitory Concentration
Source text: as §1, §2

Escherichia coli KY 8348 = conditions: KY8348, pH 7.2, strain produces gentamicin acetyltransferase Type I, read-out: Minimum Inhibitory Concentration
Source text: as §1
(§3) ^2 produces gentamicin acetyltransferase Type I

[15] = test system: Pseudomonas aeruginosa KY 8511; conditions: KY8511, pH 7.2, strain produces gentamicin acetyltransferase Type I, read-out: Minimum Inhibitory Concentration
Source text: as §1, §3

Escherichia coli KY 8320 = conditions: KY8320, pH 7.2, strain produces neomycinkanamycin phosphotransferase Type I, read-out: Minimum Inhibitory Concentration
Source text: as §1
(§4) ^3 produces neomycinkanamycin phosphotransferase Type I

Escherichia coli KY 8349 = conditions: KY8349, pH 7.2, strain produces neomycinkanamycin phosphotransferase Type I, read-out: Minimum Inhibitory Concentration
Source text: as §1, §4

[16] = test system: Pseudomonas aeruginosa KY 8518; conditions: KY8518, pH 7.2, strain produces neomycinkanamycin phosphotransferase Type I, read-out: Minimum Inhibitory Concentration
Source text: as §1, §4

Escherichia coli KY 8321 = conditions: KY8321, pH 7.2, strain produces gentamicin adenyltransferase and neomycinkanamycin phosphotransferase Type II, read-out: Minimum Inhibitory Concentration
Source text: as §1
^5 produces gentamicin adenyltransferase and neomycinkanamycin
phosphotransferase Type II

[17] = test system: Pseudomonas aeruginosa KY 8512; conditions: KY8512, pH 7.2, strain produces neomycinkanamycin phosphotransferase Type I and Type II, read-out: Minimum Inhibitory Concentration
Source text: as §1
(§5) ^6 produces neomycinkanamycin phosphotransferase Type I and Type II

[18] = test system: Pseudomonas aeruginosa KY 8519; conditions: KY8519, agar dilution, pH 7.2, strain produces neomycinkanamycin phosphotransferase Type I and Type II, read-out: Minimum Inhibitory Concentration
Source text: as §1, §5

[19] = test system: Pseudomonas aeruginosa KY 8563; conditions: KY8563, pH 7.2, read-out: Minimum Inhibitory Concentration
Source text: as §1
^7 produces gentamicin acetyltransferase Type III

[20] = test system: Pseudomonas aeruginosa KY Z-444; conditions: KYZ444, agar dilution, pH 7.2, strain produces 6N-acetyltransferase Type III, read-out: Minimum Inhibitory Concentration
Source text: as §1
(§6) ^8 produces 6N-acetyltransferase Type III

[21] = test system: Pseudomonas aeruginosa Z-445; conditions: Z445, pH 7.2, strain produces 6N-acetyltransferase Type III, read-out: Minimum Inhibitory Concentration
Source text: as §1, §6

Providencia sp. 164 = conditions: pH 7.2, strain produces gentamicin acetyltransferase Type II, read-out: Minimum Inhibitory Concentration
Source text: as §1
^9 produces gentamicin acetyltransferase Type II

CNCC1CCC(N)C(OC2C(N)CC(NC(=O)C(O)CCN)C(OC3OCC(C)(O)C(N)C3O)C2O)O1 (single isomer, unassigned) [II-2, 3"-N-demethyl-1-N-[L-(-)-α-hydroxy-γ-aminobutyryl] XK-62-2]
MIC (Escherichia coli Juhl): 1.56 µg/mL (≈ 2.83 µM) | MIC (Escherichia coli T-5): 0.4 µg/mL (≈ 0.726 µM) | MIC [1]: 0.78 µg/mL (≈ 1.42 µM) | MIC (Proteus mirabilis 1287): 12.5 µg/mL (≈ 22.7 µM) | MIC (Proteus morganii KY 4298): 1.56 µg/mL (≈ 2.83 µM) | MIC (Proteus rettgeri KY 4288): 0.78 µg/mL (≈ 1.42 µM) | MIC [2]: 0.4 µg/mL (≈ 0.726 µM) | MIC [3]: 1.56 µg/mL (≈ 2.83 µM) | MIC [4]: 3.12 µg/mL (≈ 5.67 µM) | MIC [5]: 3.12 µg/mL (≈ 5.67 µM) | MIC [6]: 3.12 µg/mL (≈ 5.67 µM) | MIC [7]: 3.12 µg/mL (≈ 5.67 µM) | MIC [8]: 0.4 µg/mL (≈ 0.726 µM) | MIC [9]: 0.4 µg/mL (≈ 0.726 µM) | MIC [10]: 25 µg/mL (≈ 45.4 µM) | MIC [11]: 0.2 µg/mL (≈ 0.363 µM) | MIC [12]: 3.12 µg/mL (≈ 5.67 µM) | MIC [13]: 3.12 µg/mL (≈ 5.67 µM) | MIC [14]: 3.12 µg/mL (≈ 5.67 µM) | MIC (Escherichia coli KY 8348): 0.4 µg/mL (≈ 0.726 µM) | MIC [15]: 1.56 µg/mL (≈ 2.83 µM) | MIC (Escherichia coli KY 8320): 0.78 µg/mL (≈ 1.42 µM) | MIC (Escherichia coli KY 8349): 0.4 µg/mL (≈ 0.726 µM) | MIC [16]: 1.56 µg/mL (≈ 2.83 µM) | MIC (Escherichia coli KY 8321): 0.78 µg/mL (≈ 1.42 µM) | MIC [17]: 1.56 µg/mL (≈ 2.83 µM) | MIC [18]: 6.25 µg/mL (≈ 11.4 µM) | MIC [19]: 3.12 µg/mL (≈ 5.67 µM) | MIC [20]: 1.56 µg/mL (≈ 2.83 µM) | MIC [21]: 6.25 µg/mL (≈ 11.4 µM) | MIC (Providencia sp. 164): 12.5 µg/mL (≈ 22.7 µM)
